Laboratory results: US20140099634A1, “USE OF PRE-MRNA SPLICING IN PLATELET CELLS FOR THE DIAGNOSIS OF DISEASE” (priority 2007, published 2014)

Experiments:
[1] = system: TF pre-mRNA splicing in platelets; test: TF pre-mRNA splicing in platelets (PCR); type: cell-based, human; details: for pre-mRNA splicing events in platelets: commonly used medications in patients
Description: TF pre-mRNA splicing may be measured by any method known in the art, including, but not limited to, PCR using primers that target sequences in exon four (5′-[…]-3′; SEQ ID NO: 1) and five (5′-[…]-3′; SEQ ID NO: 2), and thus span intron four^3. Likewise, detection of full-length mature mRNA for human TF (mHTF) in platelets may be measured using any method known in the art, including, but not limited to, using primers targeting sequences in exon one (5′-[…]-3′; SEQ ID NO: 3) and exon six (5′-[…]-3′; SEQ ID NO: 4). In light of the disclosure herein, a person of ordinary skill in the art may select and use alternative primers based on the sequence of the gene/RNA^54. Primer design may be aided by the use of available computer programs, such as OLIGO™ (available from Hitachi Software), Primer3 (available online from the University of Massachusetts Medical School), GeneFisher (available online from the Universitat Bielefeld, Germany), or OligoAnalyzer (available from Integrated DNA Technologies, Inc.).
Platelets were isolated from each patient within 48 hours of admission to the ICU and TF mRNA expression patterns were characterized in each patient. In addition, clinical data for each patient including age and gender, admission diagnoses, APACHE II score, laboratory and microbiology results, and mortality were also collected. When feasible, platelets were also isolated from blood that was obtained on days three, five, and ten. The blood samples were processed immediately. Pre-mRNA splicing was also evaluated in platelets isolated from healthy volunteers (age 18-50) that were not taking medications. Platelets isolated from patients with sepsis and routine healthy control donors were processed in parallel.
Platelets from healthy subjects were left quiescent or activated with α-toxin (10 ng/ml; List Biological Laboratories Inc.) or lipopolysaccharide (LPS; 100 ng/ml; Sigma), toxins produced by gram-positive Staph. aureus and gram-negative E. Coli, respectively. Platelets were kept quiescent or activated in suspension with MRSA or E. coli at a bacteria to platelet ratio of 1:10. The bacteria were obtained from blood cultures from sepsis patients by ARUP, a national reference laboratory under standard conditions. For these studies, the bacteria were swiped from the culture plate, re-suspended, and the desired concentration was adjusted against a standard solution using a colorimeter (Vitek Colorimeter, bioMéreux, Inc.).

SRPK2 = SRPK2 (Homo sapiens, UniProt P78362); details: concentrations up to 1 μM; cited from earlier work
SRPK2, sequence (P78362 whole entry, species assumed): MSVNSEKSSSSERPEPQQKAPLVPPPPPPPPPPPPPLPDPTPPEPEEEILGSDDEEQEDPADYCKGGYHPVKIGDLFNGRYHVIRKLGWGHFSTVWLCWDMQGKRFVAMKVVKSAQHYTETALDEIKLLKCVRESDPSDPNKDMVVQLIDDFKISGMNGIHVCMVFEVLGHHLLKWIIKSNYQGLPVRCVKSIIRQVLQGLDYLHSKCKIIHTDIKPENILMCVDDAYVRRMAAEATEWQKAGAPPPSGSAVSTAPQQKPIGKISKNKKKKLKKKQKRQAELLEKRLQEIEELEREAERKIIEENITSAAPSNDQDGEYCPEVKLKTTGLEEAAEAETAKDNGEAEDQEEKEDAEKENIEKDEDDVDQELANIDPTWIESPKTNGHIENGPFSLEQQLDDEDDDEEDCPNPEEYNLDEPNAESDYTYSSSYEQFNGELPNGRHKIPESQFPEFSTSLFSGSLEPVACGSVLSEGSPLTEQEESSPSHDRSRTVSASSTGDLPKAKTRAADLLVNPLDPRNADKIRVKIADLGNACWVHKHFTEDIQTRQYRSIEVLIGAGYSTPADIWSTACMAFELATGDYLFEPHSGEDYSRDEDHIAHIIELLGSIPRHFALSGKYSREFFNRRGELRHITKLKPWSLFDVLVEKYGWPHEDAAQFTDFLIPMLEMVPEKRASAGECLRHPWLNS

platelets [2] = details: cited from earlier work
PKC = details: concentrations up to 1 μM; cited from earlier work
platelets [3] = test: Plasma clot formation by activated platelets or their membranes; type: cell-based, human; details: platelets activated with thrombin for 2 hours, FIG. 5
SRPK1 = SRPK1 (Homo sapiens, UniProt Q96SB4); details: concentrations up to 1 μM; cited from earlier work
SRPK1, sequence (Q96SB4 whole entry, species assumed): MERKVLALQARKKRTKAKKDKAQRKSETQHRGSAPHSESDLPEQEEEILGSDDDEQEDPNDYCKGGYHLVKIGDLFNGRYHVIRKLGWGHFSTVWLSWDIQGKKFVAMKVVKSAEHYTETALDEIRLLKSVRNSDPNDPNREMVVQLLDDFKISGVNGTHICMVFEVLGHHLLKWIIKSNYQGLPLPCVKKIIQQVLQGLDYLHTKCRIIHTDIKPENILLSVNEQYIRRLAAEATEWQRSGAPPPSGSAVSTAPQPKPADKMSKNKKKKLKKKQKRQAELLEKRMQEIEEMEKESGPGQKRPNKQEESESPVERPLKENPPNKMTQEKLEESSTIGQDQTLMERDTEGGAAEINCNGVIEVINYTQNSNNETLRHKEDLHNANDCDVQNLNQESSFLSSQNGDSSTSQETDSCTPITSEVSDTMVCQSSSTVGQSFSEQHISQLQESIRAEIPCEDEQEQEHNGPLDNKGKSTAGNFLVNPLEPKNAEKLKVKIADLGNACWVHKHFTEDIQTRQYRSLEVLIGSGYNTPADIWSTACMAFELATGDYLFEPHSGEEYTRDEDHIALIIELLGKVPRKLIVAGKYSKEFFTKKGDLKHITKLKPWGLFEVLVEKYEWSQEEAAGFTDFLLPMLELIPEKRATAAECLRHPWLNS

PKA = details: concentrations up to 1 μM; cited from earlier work

CC(=O)Oc1ccccc1C(=O)O [Aspirin]
pre-mRNA splicing events in platelets [1]: do not affect | signal-dependent TF pre-mRNA splicing ([1]; platelets of elderly subject taking aspirin 325 mg daily, thrombin 0.05 U/ml for 1 hour, FIG. 2): does not block

CCN1/C(=C/C(C)=O)Sc2ccc(OC)cc21 [Tg003, (Z)-1-(3-Ethyl-5-methoxy-2,3-dihydrobenzothiazol-2-ylidene)propan-2-one]
effect on SRPK2 activity (SRPK2): does not affect | platelet adhesion, spreading, and aggregation (platelets [2]): does not alter | pre-mRNA splicing ([1]; platelets activated with thrombin, FIG. 5): blocks pre-mRNA splicing | effect on PKC activity (PKC): does not affect | plasma clot formation (platelets [3]): reduces clot formation | effect on SRPK1 activity (SRPK1): does not affect | effect on PKA activity (PKA): does not affect

CC(=O)CC(c1ccccc1)c1c(O)c2ccccc2oc1=O (stereo not drawn) [warfarin]
pre-mRNA splicing events in platelets [1]: do not affect

heparin
TF pre-mRNA splicing ([1]; platelets of septic patients who received heparin to prevent VTE): does not block

lipopolysaccharide [LPS]
induction of TF pre-mRNA splicing ([1]; platelets from healthy volunteers, 2 hours, FIGS. 11 and 12): induced TF pre-mRNA splicing
